Measurements reported in article PMC6318274, “Lattice engineering enables definition of molecular features allowing for potent small-molecule inhibition of HIV-1 entry” (Nature Communications, 2019).
Where two headings read alike, the source gives them in different places.

System: HIV-1 Env-pseudoviruses (208-strain panel)
Experiment: microbe, parasite or virus in culture
Assay type: cell-based
Details: Human immunodeficiency virus 1, TZM-bl, read-out: IC50
Procedure: Neutralization was measured using single-round-of-infection HIV-1 Env-pseudoviruses and TZM-bl target cells (ARP Cat No. #8129)[44],[45]. Compounds were prepared at 400 μM with 4% DMSO (dimethyl sulfoxide) in PBS (phosphate-buffered saline) and diluted 20 times as the starting concentration for serial dilution in the neutralization assays. […] After incubation at 37 °C for 2 days, infection of target cells was measured by luciferase activity. Neutralization curves were fit by nonlinear regression using a five-parameter hill slope equation[45].

COc1cnc(-c2csc(C(=O)NCCO)n2)c2[nH]cc(C(=O)C(=O)N3CCC(=C(C#N)c4ccccc4)CC3)c12 [BMS-818251]
IC50 (CNE5, clade AE): 465 nM
IC50 (CNE7, clade BC): 0.4 nM
IC50 (CNE8, clade AE): 2680 nM
IC50 (CNE10 (Clade B)): 0.1 nM
IC50 (CNE12, clade B): 2 nM
IC50 (CNE14, clade B): 1120 nM
IC50 (CNE15, clade BC): 0.1 nM
IC50 (CNE19, clade BC): 0.1 nM
IC50 (CNE20 (Clade BC)): 6 nM
IC50 (CNE21, clade BC): 0.3 nM
IC50 (CNE30, clade C): 0.2 nM
IC50 (CNE31, clade C): 1 nM
IC50 (CNE40, clade BC): 1 nM
IC50 (CNE55, clade AE): 282 nM
IC50 (CNE56 (Clade AE)): 797 nM
IC50 (CNE57, clade B): 0.3 nM
IC50 (CNE58, clade C): 0.2 nM
IC50 (CNE59, clade AE): 506 nM
IC50 (Ce1176.A3, clade C): 0.9 nM
IC50 (DJ263.8 (Clade AG)): 0.2 nM
IC50 (DU123.06, clade C): 0.3 nM
IC50 (DU151.02, clade C): 0.2 nM
IC50 (DU156.12 (Clade C)): 0.2 nM
IC50 (DU172.17, clade C): 0.1 nM
IC50 (DU422.01, clade C): 0.7 nM
IC50 (HO86.8, clade B): 4 nM
IC50 (HT593.1, clade B): 0.1 nM
IC50 (JRFL.JB, clade B): 0.1 nM
IC50 (KER2008.12 (Clade A)): 15 nM
IC50 (KER2018.11, clade A): 0.3 nM
IC50 (KNH1209.18, clade A): 0.4 nM
IC50 (M02138, clade AE): 28 nM
IC50 (MB201.A1 (Clade A)): 9 nM
IC50 (MB539.2B7, clade A): 2 nM
IC50 (MI369.A5, clade A): 0.3 nM
IC50 (MN.3, clade B): 0.6 nM
IC50 (MS208.A1, clade A): 0.3 nM
IC50 (MW965.26, clade C): 6 nM
IC50 (NKU3006.ec1 (Clade D)): 0.2 nM
IC50 (P0402.c2.11 (Clade G)): 0.2 nM
IC50 (P1981.C5.3, clade G): 0.5 nM
IC50 (PVO.04 (Clade B)): 0.4 nM
IC50 (Q23.17, clade A): 0.5 nM
IC50 (Q168.a2, clade AD): 3 nM
IC50 (Q259.17, clade A): 7 nM
IC50 (Q461.e2, clade AD): 0.3 nM
IC50 (Q769.d22, clade A): 1 nM
IC50 (Q769.h5, clade A): 2 nM
IC50 (Q842.d12, clade A): 0.4 nM
IC50 (QH209.14M.A2, clade A): 60 nM
IC50 (QH0515.01, clade B): 31 nM
IC50 (QH0692.42, clade B): 0.7 nM
IC50 (R1166.c1, clade AE): > 20000 nM
IC50 (R2184.c4, clade AE): 2040 nM
IC50 (R3265.c6 (Clade AE)): 122 nM
IC50 (REJO.67 (Clade B)): 590 nM
IC50 (RHPA.7, clade B): 0.5 nM
IC50 (RW020.2, clade A): 0.7 nM
IC50 (SF162.LS, clade B): 0.1 nM
IC50 (SO18.18, clade C): 0.2 nM
IC50 (SS1196.01, clade B): 579 nM
IC50 (T33-7, clade AG): 252 nM
IC50 (T250-4, clade AG): 0.4 nM
IC50 (T251-18, clade AG): 0.6 nM
IC50 (T253-11 (Clade AG)): 0.1 nM
IC50 (T255-34, clade AG): 2 nM
IC50 (T257-31, clade AG): 1 nM
IC50 (T266-60, clade AG): 42 nM
IC50 (T278-50, clade AG): 0.1 nM
IC50 (T280-5 (Clade AG)): 0.4 nM
IC50 (TH023.6, clade AE): > 20000 nM
IC50 (TH966.8, clade AE): 923 nM
IC50 (TH976.17, clade AE): 1280 nM
IC50 (THRO.18, clade B): 0.2 nM
IC50 (TRJO.58, clade B): 0.1 nM
IC50 (TRO.11, clade B): 127 nM
IC50 (TV1.29, clade C): 1 nM
IC50 (TZA125.17, clade C): 1 nM
IC50 (TZBD.02, clade C): 0.3 nM
IC50 (UG021.16, clade D): 0.2 nM
IC50 (UG024.2, clade D): > 20000 nM
IC50 (UG037.8, clade A): 10 nM
IC50 (WITO.33, clade B): 0.8 nM
IC50 (X1254.c3, clade G): 0.2 nM
IC50 (X1632.S2.B10, clade G): 0.3 nM
IC50 (X2088.c9, clade G): 0.3 nM
IC50 (X2131.C1.B5, clade G): 1 nM
IC50 (X2278.C2.B6, clade B): 440 nM
IC50 (YU2.DG, clade B): 0.5 nM
IC50 (ZA012.29, clade C): 0.5 nM
IC50 (ZM53.12, clade C): 0.4 nM
IC50 (ZM55.28a, clade C): 0.3 nM
IC50 (ZM106.9 (Clade C)): 2 nM
IC50 (ZM109.4, clade C): 0.1 nM
IC50 (ZM135.10a, clade C): 153 nM
IC50 (ZM176.66, clade C): 1 nM
IC50 (ZM197.7, clade C): 0.2 nM
IC50 (ZM214.15, clade C): 0.2 nM
IC50 (ZM215.8, clade C): 0.1 nM
IC50 (ZM233.6, clade C): 0.1 nM
IC50 (ZM249.1, clade C): 0.4 nM
IC50 ([…], clade C): 0.1 nM
IC50 ([…], clade G): 0.6 nM
